Data as given in patent US12630498B2 (Genzyme Corporation, priority 2019, dated 2026).

What was measured:
[1] = molecular target: T1, human Cystic Fibrosis Transmembrane Conductance Regulator (CFTR) harboring the ΔF508 mutation (Homo sapiens, UniProt P13569, DEL508-508); assay: H441 cell ΔF508-CFTR-HRP cell surface assay (Emax and EC50); assay type: cell-based; settings: for Emax: NCI-H441, NA = Not active
T1 construct: expressed in transfected cells; host or cells: H441 carcinoma line (G418-selected)
Outline: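 H441 and 41o- bronchial epithelial cells expressing ΔF508-CFTR with an extracellular-loop-4 HRP tag were treated with a 15-point compound series (24.5–0.001 μM) for two nights, H441 at 27° C, 41o- at 37° C with 0.0005 mg/ml doxycycline. Surface HRP luminescence read; % of maximum VX809 signal and EC50 derived.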

[2] = molecular target: T2, CFTR-mediated transepithelial chloride transport in primary human bronchial epithelial cells from a ΔF508 homozygous CF donor (Homo sapiens, UniProt P13569, DEL508-508); assay: TECC24 recording of CFTR-mediated transepithelial chloride transport in CF-HBE cells (AUC fold over DMSO); assay type: cell-based; settings: test agent 10 μM, 48 hours incubation, AUC of forskolin-stimulated IEQ relative to DMSO
T2 construct: Primary human bronchial epithelial cells from a ΔF508 homozygous CF donor; host or cells: primary CF-HBE cells, ΔF508 homozygous donor
Protocol: Example 316: TECC24 AUC Fold Over DMSO @ 10 uM
The effects of a test agent on CFTR-mediated transepithelial chloride transport was measured using TECC24 recording analysis. Test agents were solubilized in DMSO. Solubilized test agents were mixed with incubation medium containing DMEM/F12, Ultroser G (2%; Crescent Chemical, catalog #67042), Hyclone Fetal Clone II (2%; GE Healthcare, catalog #SH30066.02), bovine brain extract (0.25%; Lonza, catalog #CC-4098), insulin (2.5 μg/mL), IL-13 (10 ng/mL), hydrocortisone (20 nM), transferrin (2.5 μg/mL), triiodothyronine (500 nM), ethanolamine (250 nM), epinephrine (1.5 μM), phosphoethanolamine (250 nM), and retinoic acid (10 nM). Primary human bronchial epithelial cells from a ΔF508 homozygous CF donor (CF-HBE cells; from University of North Carolina Cystic Fibrosis Tissue Procurement Center), grown on Transwell HTS 24-well cell culture inserts (Costar, catalog #3378), were exposed to test agents or controls dissolved in incubation medium. The CF-HBE cells were cultured at 36.5° C. for 48 hours before TECC24 recordings were performed in the presence or absence of test agent, a positive control or vehicle (DMSO).
Following incubation, the transwell cell culture inserts containing the test agent or control-treated CF-HBE cells were loaded onto a TECC24 apparatus (TECC v7 or MTECC v2; EP Design) to record the transepithelial voltage (VT) and resistance (TEER) using 4 AgCl electrodes per well configured in current-clamp mode. The apical and basolateral bath solutions both contained (in mM) 140 NaCl, 5 KCl, 2 CaCl2), 1 MgCl2, 10 Hepes, and 10 glucose (adjusted to pH 7.4 with NaOH). To inhibit basal Na+ absorption, the ENaC inhibitor benzamil (10 μM) was added to the bath. Then, the adenylate cyclase activator, forskolin (10 μM), was added to the bath to activate CFTR. The forskolin-stimulated Cl-transport was halted by addition of CFTR inhibitor-172 (20 μM) to the bath at the end of the experiment to confirm specificity. VT and TEER recordings were digitally acquired at routine intervals using TECC or MTECC software (EP Design). VT and TEER were transformed into equivalent transepithelial Cl-current (IEQ), and the Area Under the Curve (AUC) of the IEQ time course between forskolin and CFTR inhibitor-172 addition was generated using Excel (Microsoft). Efficacy is expressed as the ratio of the test agent AUC divided by vehicle AUC. EC50s based on AUC are generated using the non-linear regression log(agonist) vs. response function in Prism software (GraphPad) with Hill Slope fixed=1.
If a test agent increased the AUC of the forskolin-stimulated IEQ relative to vehicle in CF-HBE cells, and this increase was inhibited by CFTR inhibitor-172, then the test agent was considered a CFTR corrector.

T1 sequence (P13569 with tags, fused parts or gaps DEL508-508): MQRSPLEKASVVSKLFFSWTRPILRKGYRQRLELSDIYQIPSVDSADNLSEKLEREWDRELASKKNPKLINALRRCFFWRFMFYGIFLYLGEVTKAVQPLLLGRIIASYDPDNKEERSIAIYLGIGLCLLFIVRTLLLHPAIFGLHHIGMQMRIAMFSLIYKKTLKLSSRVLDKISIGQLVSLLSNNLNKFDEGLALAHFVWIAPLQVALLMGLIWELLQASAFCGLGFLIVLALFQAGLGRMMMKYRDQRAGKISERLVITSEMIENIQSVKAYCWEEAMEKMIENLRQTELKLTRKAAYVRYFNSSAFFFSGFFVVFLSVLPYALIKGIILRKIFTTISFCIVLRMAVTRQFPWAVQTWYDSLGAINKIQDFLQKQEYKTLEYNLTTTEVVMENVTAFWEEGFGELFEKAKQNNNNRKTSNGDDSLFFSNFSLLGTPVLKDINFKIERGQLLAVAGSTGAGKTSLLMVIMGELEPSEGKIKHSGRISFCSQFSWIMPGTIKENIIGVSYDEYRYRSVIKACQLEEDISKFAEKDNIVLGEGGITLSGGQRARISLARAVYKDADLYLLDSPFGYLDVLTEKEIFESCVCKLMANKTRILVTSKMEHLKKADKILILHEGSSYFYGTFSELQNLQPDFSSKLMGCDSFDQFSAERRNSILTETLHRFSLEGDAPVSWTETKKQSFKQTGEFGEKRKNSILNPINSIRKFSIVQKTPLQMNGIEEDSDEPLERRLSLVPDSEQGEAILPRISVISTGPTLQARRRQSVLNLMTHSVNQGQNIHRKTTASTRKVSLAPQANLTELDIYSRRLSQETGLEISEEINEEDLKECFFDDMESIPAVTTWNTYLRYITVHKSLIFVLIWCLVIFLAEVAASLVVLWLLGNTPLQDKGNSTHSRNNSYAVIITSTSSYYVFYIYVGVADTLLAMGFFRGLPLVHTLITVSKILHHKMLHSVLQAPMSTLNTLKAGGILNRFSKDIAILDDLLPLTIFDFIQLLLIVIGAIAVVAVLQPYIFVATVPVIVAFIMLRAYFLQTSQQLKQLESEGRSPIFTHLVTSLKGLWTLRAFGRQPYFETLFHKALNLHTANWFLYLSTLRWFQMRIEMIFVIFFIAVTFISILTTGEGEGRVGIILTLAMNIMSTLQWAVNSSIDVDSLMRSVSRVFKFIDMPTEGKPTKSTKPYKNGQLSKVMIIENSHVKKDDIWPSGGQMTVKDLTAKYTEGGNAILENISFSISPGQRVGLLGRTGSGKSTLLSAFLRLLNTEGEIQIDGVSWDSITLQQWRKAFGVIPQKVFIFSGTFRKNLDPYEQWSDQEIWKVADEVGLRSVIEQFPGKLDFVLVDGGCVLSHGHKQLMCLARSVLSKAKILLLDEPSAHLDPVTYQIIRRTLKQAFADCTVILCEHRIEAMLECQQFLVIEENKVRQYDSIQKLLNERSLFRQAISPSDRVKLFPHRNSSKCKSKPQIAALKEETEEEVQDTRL
T2 sequence (P13569 with tags, fused parts or gaps DEL508-508): as above

Row | EC50 [1] | Emax [1] | TECC24 AUC fold over DMSO @10 μM [2] | Compound
1 | 900 nM | 115% | C (“C” refers to AUC @10 uM <4) | O=C(N[C@H](C(=O)O)C(c1ccccc1)c1ccccc1)c1ccc2cc(F)ccc2c1OCc1nc2ccccc2s1 [Example 216, (S)-2-(1-(benzo[d]thiazol-2-ylmethoxy)-6-fluoro-2-naphthamido)-3,3-diphenylpropanoic Acid]
2 | 700 nM | 138% | C (“C” refers to AUC @10 uM <4) | CC(C)(SCC1CC1(F)F)[C@H](NC(=O)c1ccc2ccccc2c1OCc1ccc(C(F)(F)F)cc1)C(=O)O (stereo partly drawn) [Example 163, (2R)-3-(((2,2-difluorocyclopropyl)methyl)thio)-3-methyl-2-(1-((4-(trifluoromethyl)benzyl)oxy)-2-naphthamido)butanoic Acid]
3 | 4100 nM | 112% | C (“C” refers to AUC @10 uM <4) | C[C@@H](OCc1ccccc1)[C@H](NC(=O)c1ccc2cc(F)ccc2c1OCC1CCCCC1)C(=O)O (stereo in doubt) [Example 202]
4 | 7200 nM | 122% | C (“C” refers to AUC @10 uM <4) | O=C(N[C@@H](Cc1c(Cl)cccc1Cl)C(=O)O)c1ccc2ccccc2c1OCc1ccc(C(F)(F)F)cc1 [Example 152, (S)-3-(2,6-dichlorophenyl)-2-(1-((4-(trifluoromethyl)benzyl)oxy)-2-naphthamido)propanoic Acid]
5 | 600 nM | 115% | B (“B” refers to AUC @10 uM between 4-6) | CCC(C)(C)[C@H](NC(=O)c1ccc2ccccc2c1OCc1ccc(SC(F)(F)F)cc1)C(=O)O [Example 55, (S)-3,3-dimethyl-2-(1-((4-((trifluoromethyl)thio)benzyl)oxy)-2-naphthamido)pentanoic Acid]
6 | 100 nM | 267% | A (“A” refers to AUC @10 uM >6) | CCCC(C)(CC)[C@H](NC(=O)c1ccc2ccc(Cl)cc2c1OCc1ccc(OC(F)(F)F)cc1)C(=O)O (stereo partly drawn) [Example 251, (2S)-2-[[7-chloro-1-[[4-(trifluoromethoxy)phenyl]methoxy]naphthalene-2-carbonyl]amino]-3-ethyl-3-methyl-hexanoic Acid]
7 | 500 nM | 173% | C (“C” refers to AUC @10 uM <4) | Cc1ccc2ccc(C(=O)N[C@@H](C(=O)O)C(C)(C)C)c(OCc3ccc(C(F)(F)F)cc3)c2c1 [Example 284, (R)-3,3-dimethyl-2-(7-methyl-1-((4-(trifluoromethyl)benzyl)oxy)-2-naphthamido) butanoic Acid]
8 | 5600 nM | 108% | C (“C” refers to AUC @10 uM <4) | Cc1cc(COc2c(C(=O)N[C@H](C(=O)O)C(C)(C)C)ccc3ccccc23)no1 [Example 86, (S)-3,3-dimethyl-2-(1-((5-methylisoxazol-3-yl)methoxy)-2-naphthamido)butanoic Acid]
9 | 700 nM | 133% | B (“B” refers to AUC @10 uM between 4-6) | CC1(C(NC(=O)c2ccc3ccccc3c2OCc2ccc(SC(F)(F)F)cc2)C(=O)O)CCCCC1 (centres unmarked) [Example 36, 2-(1-methylcyclohexyl)-2-(1-((4-((trifluoromethyl)thio)benzyl)oxy)-2-naphthamido)acetic Acid]
10 | 700 nM | 64.7% | C (“C” refers to AUC @10 uM <4) | CC(C)(S[C@@H]1C[C@@H]2CC[C@H]1C2)[C@H](NC(=O)c1ccc2cc(F)ccc2c1OCc1ccc(SC(F)(F)F)cc1)C(=O)O [Example 177, (R)-3-(((1S,2R,4R)-bicyclo[2.2.1]heptan-2-yl)thio)-2-(6-fluoro-1-((4-((trifluoromethyl)thio)benzyl)oxy)-2-naphthamido)-3-methylbutanoic Acid]
11 | 200 nM | 305% | A (“A” refers to AUC @10 uM >6) | Cc1ccc2ccc(C(=O)N[C@H](C(=O)O)C(C)(C)C)c(OCc3ccc(OC(F)(F)F)cc3)c2c1 [Example 249, (2S)-3,3-dimethyl-2-[[7-methyl-1-[[4-(trifluoromethoxy)phenyl]methoxy]naphthalene-2-carbonyl]amino]butanoic Acid]
12 | 4800 nM | 92.2% | C (“C” refers to AUC @10 uM <4) | CC(C)(C)C[C@H](NC(=O)c1ccc2cc(F)ccc2c1OCC1CCCCC1)C(=O)O [Example 205, (S)-2-(1-(cyclohexylmethoxy)-6-fluoro-2-naphthamido)-4,4-dimethylpentanoic Acid]
13 | 1200 nM | 51.4% | C (“C” refers to AUC @10 uM <4) | O=C(N[C@H](C(=O)O)C1CCCC1)c1ccc2cc(F)ccc2c1OCc1ccc(SC(F)(F)F)cc1 [Example 116, (S)-2-cyclopentyl-2-(6-fluoro-1-((4-((trifluoromethyl)thio)benzyl)oxy)-2-naphthamido)acetic Acid]
14 | – | – | C (“C” refers to AUC @10 uM <4) | CC(C)(c1ccccc1)[C@H](NC(=O)c1ccc2cc(F)ccc2c1OCc1ccc(SC(F)(F)F)cc1)C(=O)O [Example 10, (S)-2-(6-fluoro-1-((4-((trifluoromethyl)thio)benzyl)oxy)-2-naphthamido)-3-methyl-3-phenylbutanoic Acid]
15 | – | – | C (“C” refers to AUC @10 uM <4) | CC(C)(C)c1ccc(COc2c(C(=O)N[C@@H](Cc3ccccc3)C(=O)O)ccc3ccccc23)cc1 [Example 96, (1-((4-(tert-butyl)benzyl)oxy)-2-naphthoyl)-L-phenylalanine]
16 | – | – | C (“C” refers to AUC @10 uM <4) | CC(C)(C)C[C@H](NC(=O)c1ccc2cc(F)ccc2c1OCc1ccc(Cl)c(Cl)c1)C(=O)O [Example 211, (S)-2-(1-((3,4-dichlorobenzyl)oxy)-6-fluoro-2-naphthamido)-4,4-dimethylpentanoic Acid]
17 | – | – | C (“C” refers to AUC @10 uM <4) | O=C(N[C@@H](Cc1ccccc1)C(=O)O)c1ccc2ccccc2c1OCc1ccc(F)cc1 [Example 94]
18 | – | – | A (“A” refers to AUC @10 uM >6) | CCC(C)(C)[C@@H](NC(=O)c1ccc2ccc(C)cc2c1OCc1ccc(C(F)(F)F)cc1)C(=O)O [Example 305, (R)-3,3-dimethyl-2-(7-methyl-1-((4-(trifluoromethyl)benzyl)oxy)-2-naphthamido)pentanoic Acid]
19 | – | – | C (“C” refers to AUC @10 uM <4) | CC(OCc1ccccc1)[C@H](NC(=O)c1ccc2ccccc2c1OCc1ccc(OC(F)(F)F)cc1)C(=O)O (stereo in doubt) [Example 188, O-benzyl-N-(1-((4-(trifluoromethoxy)benzyl)oxy)-2-naphthoyl)-L-allothreonine]
20 | – | – | C (“C” refers to AUC @10 uM <4) | O=C(N[C@@H](Cc1ccc(C(F)(F)F)cc1)C(=O)O)c1ccc2cc(F)ccc2c1OCc1ccc(OC(F)(F)F)cc1 [Example 194, (S)-2-(6-fluoro-1-((4-(trifluoromethoxy)benzyl)oxy)-2-naphthamido)-3-(4-(trifluoromethyl)phenyl)propanoic Acid]
21 | 4800 nM | 151% | – | CC(C)(C)[C@H](NC(=O)c1ccc2ccccc2c1OCc1ccc(C(F)(F)F)cn1)C(=O)O [Example 2, (S)-3,3-dimethyl-2-(1-((5-(trifluoromethyl)pyridin-2-yl)methoxy)-2-naphthamido)butanoic Acid]
22 | 12000 nM | 72.6% | – | Cc1cc(COc2c(C(=O)NC(C(=O)O)[C@@H](C)OCc3ccccc3)ccc3ccccc23)no1 (stereo partly drawn) [Example 145, (3R)-3-(benzyloxy)-2-(1-((5-methylisoxazol-3-yl)methoxy)-2-naphthamido)butanoic Acid]
